In patent US20240285727A1, “NOVEL THERAPEUTIC PEPTIDES FOR NEURODEGENERATION” (UNIVERSITY OF SOUTHERN CALIFORNIA, priority 2021, published 2024):
Ends that are not written are not given here.

Tests used:
SH-SY5Y cells [1] = assay: Amyloid beta toxicity assay (LIVE/DEAD viability); format: cell-based; conditions: neuronal cells stressed with oligomerized amyloid beta 42 (1 uM); 10 uM peptide
Description: SH-SY5Y cells were differentiated for 4 days, incubated with 10 uM SHMOOSE or SHMOOSE.D47N for 24 hours followed by another incubation with SHMOOSE or SHMOOSE.D47N with or without oligomerized 1 uM amyloid beta 42 (CPC Scientific), prepared as formerly described. A two-color fluorescence cell viability assay (LIVE/DEAD Viability/Cytotoxicity Kit; Invitrogen (cat. L3224) was used to distinguish live cells from dead cells after […] and amyloid beta 42 treatment. The ratio of live to dead cells can be quantified since live cells retain the Calcein AM dye and dead cells with damaged membranes permit entry of the ethidium homodimer dye.

mitofilin = molecular target: T1, mitofilin (Homo sapiens, UniProt Q16891); assay: SHMOOSE-mitofilin protein interaction (co-immunoprecipitation, reciprocal dot blot); format: binding; conditions: reciprocal dot-based immunoblots, recombinant proteins
T1 construct: purchased OriGene
T1 sequence (Q16891 34-758): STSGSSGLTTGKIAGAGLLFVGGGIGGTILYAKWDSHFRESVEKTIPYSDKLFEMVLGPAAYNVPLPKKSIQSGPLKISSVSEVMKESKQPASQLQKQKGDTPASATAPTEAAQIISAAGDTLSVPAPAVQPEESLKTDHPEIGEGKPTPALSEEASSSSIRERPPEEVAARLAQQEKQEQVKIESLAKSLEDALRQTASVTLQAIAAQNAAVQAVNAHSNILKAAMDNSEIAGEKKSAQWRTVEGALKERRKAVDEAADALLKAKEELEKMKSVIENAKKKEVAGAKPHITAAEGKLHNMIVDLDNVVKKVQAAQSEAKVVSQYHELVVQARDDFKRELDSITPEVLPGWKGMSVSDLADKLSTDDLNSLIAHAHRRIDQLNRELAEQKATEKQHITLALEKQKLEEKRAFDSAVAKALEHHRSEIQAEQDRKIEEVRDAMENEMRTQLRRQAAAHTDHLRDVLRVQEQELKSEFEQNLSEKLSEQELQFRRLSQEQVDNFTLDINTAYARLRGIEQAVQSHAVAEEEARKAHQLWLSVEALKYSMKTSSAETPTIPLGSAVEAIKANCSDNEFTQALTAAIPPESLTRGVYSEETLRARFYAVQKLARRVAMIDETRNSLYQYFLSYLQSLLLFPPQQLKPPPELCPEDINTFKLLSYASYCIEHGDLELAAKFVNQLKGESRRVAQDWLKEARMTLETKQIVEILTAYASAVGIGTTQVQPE
Description: To identify the SHMOOSE interactome, multiple experiments were conducted. First, 1.5 nmol of SHMOOSE was spiked into 1 mg SH-SY5Y cell lysate for 6 hours at 4° C. Lysates were prepared using Thermo Pierce CoIP lysis buffer with 1× Thermo protease inhibitor cocktail and 1 mM PMSF. Briefly, cells were washed with ice-cold DPBS twice, lysed for 15 minutes on ice, and centrifuged for 10 minutes at 12,000 RCF at 4° C. The rationale for conducting this experiment was to ensure identical protein amounts between conditions and avoid differential protein expression caused by SHMOOSE treatment to cells. After 6 hours, SHMOOSE was immunoprecipitated from samples using Dynabeads A conjugated to 5 ug of custom c-terminus SHMOOSE antibody. As a negative control, SHMOOSE-spiked lysates were also immunoprecipitated using 5 ug rabbit IgG. Proteins were eluted from beads using 50 mM Glycine pH 2.8, and eluents were pH neutralized using Tris HCl pH 7.5. Complete eluents were then processed for protein identification using LC-MS. […] Statistical analysis of MaxQuant label-free quantitation data was performed with the artMS Bioconductor package, which performs the relative quantification of protein abundance using the MSstats Bioconductor package (default parameters). […]

SH-SY5Y cells [2] = assay: Seahorse assay (oxygen consumption rate); format: cell-based
Description: SH-SY5Y Cells were Plated into 96-Well Plates at a Density of 10,000 Cells. The following day, cells were differentiated for a total of 4 days. Thereafter, SHMOOSE or SHMOOSE.D47N were incubated for 24 hours, followed by cell real-time oxygen consumption rates measurements using XF96 Extracellular Flux Analyzer (Seahorse Bioscience). ATP turnover and maximum respiratory capacity were calculated after challenging cells with oligomycin and FCCP (carbonyl cyanide 4-[trifluoromethoxy]phenylhydrazone). Additionally, glycolytic rate was determined using extracellular acidification rate (ECAR) and individually reported relative to basal level in percentage. All readings were normalized to total DNA content using Hoechst 33342.

- binding to mitofilin (mitofilin): confirming binding
Sequence: MPPCLTTWLSQLLKDNSYPLVLGPKNFGATPNKSNNHAHYYNHPNPNFPNSPHPYHPR [SHMOOSE.D47N]
- protection against cell death (SH-SY5Y cells [1]): did not similarly protect cells
- basal cell oxygen consumption rate (in words) (SH-SY5Y cells [2]): but not mutant SHMOOSE.D47N, boosts basal cell oxygen consumption rate
- mitochondrial spare capacity (SH-SY5Y cells [2]; after oligomycin and FCCP, 24 hours incubation): boosted mitochondrial spare capacity
